Results from doi:10.1101/2023.03.24.534094v2 (biorxiv, 2023).
Where two headings read alike, the source gives them in different places.

Experiments:
Assay in all cases: biochemical
[1] = biological target: BIKE (Homo sapiens, UniProt Q9NSY1)
[2] = biological target: T1, DYRK2 (Homo sapiens, UniProt Q92630)
T1 sequence (Q92630 1-601): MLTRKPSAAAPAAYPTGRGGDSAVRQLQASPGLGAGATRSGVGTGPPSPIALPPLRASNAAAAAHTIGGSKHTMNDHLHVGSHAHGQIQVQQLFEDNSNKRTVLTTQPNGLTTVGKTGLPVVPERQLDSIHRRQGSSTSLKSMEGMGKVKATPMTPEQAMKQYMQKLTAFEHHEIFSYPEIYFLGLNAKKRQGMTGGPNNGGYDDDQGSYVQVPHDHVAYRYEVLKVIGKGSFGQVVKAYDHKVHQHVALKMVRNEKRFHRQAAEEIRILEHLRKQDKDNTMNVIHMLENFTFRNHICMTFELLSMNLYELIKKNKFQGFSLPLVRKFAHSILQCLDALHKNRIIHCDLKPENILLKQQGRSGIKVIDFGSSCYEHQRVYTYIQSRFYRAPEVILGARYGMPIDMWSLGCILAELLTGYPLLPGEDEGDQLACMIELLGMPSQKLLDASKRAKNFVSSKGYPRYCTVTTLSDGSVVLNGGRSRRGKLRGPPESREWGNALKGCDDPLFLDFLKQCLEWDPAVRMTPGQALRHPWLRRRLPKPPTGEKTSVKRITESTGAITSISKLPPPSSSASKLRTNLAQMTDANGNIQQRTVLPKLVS

[3] = biological target: BRD4 (Homo sapiens, UniProt O60885)
[4] = biological target: T2, Erk7 (Homo sapiens, UniProt Q8TD08)
T2 sequence (Q8TD08 1-544): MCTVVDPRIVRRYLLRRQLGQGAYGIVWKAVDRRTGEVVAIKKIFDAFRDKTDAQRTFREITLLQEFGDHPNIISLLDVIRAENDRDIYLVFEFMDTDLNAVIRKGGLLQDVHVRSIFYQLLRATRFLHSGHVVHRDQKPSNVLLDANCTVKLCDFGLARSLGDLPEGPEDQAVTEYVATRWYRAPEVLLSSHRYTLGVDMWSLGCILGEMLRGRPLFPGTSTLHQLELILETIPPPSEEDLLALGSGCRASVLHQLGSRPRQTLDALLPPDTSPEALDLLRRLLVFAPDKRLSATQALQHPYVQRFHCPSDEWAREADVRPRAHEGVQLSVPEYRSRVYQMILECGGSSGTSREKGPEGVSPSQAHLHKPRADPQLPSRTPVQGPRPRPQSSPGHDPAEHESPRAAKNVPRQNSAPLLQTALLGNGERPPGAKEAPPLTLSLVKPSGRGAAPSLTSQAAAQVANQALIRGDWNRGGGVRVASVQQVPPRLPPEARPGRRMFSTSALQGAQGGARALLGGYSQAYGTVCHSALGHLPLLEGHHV

[5] = biological target: DAPK1 (Homo sapiens, UniProt P53355)
DAPK1, sequence (P53355 whole entry): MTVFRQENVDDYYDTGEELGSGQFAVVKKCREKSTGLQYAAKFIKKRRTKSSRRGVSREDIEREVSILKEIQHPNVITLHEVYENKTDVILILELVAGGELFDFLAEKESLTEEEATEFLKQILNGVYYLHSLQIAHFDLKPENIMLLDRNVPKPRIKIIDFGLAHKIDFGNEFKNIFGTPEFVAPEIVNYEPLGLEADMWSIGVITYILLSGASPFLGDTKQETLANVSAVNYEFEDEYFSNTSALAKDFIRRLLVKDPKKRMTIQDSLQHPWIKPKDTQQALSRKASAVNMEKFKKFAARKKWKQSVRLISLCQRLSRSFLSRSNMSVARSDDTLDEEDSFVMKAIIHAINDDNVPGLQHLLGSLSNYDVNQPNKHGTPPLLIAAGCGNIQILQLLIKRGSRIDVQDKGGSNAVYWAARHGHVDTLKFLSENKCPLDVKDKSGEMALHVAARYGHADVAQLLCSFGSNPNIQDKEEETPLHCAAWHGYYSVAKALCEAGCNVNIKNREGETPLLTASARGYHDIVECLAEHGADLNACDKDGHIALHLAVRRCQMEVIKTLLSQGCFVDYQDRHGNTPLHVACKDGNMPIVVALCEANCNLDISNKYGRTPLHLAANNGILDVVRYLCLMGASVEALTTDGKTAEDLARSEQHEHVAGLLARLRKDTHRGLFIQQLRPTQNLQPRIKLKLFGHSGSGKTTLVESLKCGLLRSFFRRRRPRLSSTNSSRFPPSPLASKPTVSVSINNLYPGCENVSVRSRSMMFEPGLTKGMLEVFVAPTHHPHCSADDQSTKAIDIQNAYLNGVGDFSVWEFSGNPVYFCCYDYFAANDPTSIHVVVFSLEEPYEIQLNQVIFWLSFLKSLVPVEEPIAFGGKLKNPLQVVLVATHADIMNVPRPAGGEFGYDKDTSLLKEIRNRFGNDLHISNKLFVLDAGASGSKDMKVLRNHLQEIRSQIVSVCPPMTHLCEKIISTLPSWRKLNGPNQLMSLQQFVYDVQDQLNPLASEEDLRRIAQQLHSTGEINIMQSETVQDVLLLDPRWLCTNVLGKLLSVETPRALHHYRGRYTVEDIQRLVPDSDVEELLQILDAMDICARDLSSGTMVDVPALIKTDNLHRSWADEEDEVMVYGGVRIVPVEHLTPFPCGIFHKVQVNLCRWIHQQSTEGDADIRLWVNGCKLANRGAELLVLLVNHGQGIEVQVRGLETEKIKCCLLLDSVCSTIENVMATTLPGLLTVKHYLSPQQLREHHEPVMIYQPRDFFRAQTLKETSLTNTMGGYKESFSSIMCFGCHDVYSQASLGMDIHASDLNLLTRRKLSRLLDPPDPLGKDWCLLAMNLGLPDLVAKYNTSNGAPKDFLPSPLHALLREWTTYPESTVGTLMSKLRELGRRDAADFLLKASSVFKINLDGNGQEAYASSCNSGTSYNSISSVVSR

[6] = biological target: DYRK1A (Homo sapiens, UniProt Q13627)
[7] = biological target: ABL1 (Homo sapiens, UniProt P00519)
ABL1, sequence (P00519 whole entry): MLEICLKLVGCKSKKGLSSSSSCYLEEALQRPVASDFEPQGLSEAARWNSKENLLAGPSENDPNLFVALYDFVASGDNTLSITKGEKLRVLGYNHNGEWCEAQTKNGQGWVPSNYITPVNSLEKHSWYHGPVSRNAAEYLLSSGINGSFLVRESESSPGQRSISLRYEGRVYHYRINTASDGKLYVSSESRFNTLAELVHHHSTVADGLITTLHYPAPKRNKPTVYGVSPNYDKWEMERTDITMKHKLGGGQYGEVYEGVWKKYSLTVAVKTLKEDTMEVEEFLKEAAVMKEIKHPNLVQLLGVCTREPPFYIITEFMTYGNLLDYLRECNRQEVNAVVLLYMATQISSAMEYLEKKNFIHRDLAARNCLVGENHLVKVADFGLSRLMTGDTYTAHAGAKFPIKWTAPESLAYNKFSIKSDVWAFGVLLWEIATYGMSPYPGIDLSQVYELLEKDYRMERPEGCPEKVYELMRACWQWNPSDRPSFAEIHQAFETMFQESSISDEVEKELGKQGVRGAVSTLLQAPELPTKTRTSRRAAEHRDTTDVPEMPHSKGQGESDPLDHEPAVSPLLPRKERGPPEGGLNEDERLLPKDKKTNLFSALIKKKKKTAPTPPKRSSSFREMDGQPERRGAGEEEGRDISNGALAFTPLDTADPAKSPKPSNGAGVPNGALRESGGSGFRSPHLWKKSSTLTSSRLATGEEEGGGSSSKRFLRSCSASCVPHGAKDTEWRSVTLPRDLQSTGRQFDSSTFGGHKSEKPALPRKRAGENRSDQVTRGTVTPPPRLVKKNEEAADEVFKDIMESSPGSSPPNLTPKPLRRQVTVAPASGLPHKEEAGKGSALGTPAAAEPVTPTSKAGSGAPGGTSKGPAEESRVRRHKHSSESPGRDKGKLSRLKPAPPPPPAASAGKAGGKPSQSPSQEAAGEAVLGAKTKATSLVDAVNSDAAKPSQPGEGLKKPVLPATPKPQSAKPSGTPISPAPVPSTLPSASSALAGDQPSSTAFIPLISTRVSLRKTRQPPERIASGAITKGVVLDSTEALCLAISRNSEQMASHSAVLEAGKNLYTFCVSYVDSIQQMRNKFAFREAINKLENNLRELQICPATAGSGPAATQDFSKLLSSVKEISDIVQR

[8] = biological target: T3, GAK (Homo sapiens, UniProt O14976)
T3 sequence (O14976 1-1311): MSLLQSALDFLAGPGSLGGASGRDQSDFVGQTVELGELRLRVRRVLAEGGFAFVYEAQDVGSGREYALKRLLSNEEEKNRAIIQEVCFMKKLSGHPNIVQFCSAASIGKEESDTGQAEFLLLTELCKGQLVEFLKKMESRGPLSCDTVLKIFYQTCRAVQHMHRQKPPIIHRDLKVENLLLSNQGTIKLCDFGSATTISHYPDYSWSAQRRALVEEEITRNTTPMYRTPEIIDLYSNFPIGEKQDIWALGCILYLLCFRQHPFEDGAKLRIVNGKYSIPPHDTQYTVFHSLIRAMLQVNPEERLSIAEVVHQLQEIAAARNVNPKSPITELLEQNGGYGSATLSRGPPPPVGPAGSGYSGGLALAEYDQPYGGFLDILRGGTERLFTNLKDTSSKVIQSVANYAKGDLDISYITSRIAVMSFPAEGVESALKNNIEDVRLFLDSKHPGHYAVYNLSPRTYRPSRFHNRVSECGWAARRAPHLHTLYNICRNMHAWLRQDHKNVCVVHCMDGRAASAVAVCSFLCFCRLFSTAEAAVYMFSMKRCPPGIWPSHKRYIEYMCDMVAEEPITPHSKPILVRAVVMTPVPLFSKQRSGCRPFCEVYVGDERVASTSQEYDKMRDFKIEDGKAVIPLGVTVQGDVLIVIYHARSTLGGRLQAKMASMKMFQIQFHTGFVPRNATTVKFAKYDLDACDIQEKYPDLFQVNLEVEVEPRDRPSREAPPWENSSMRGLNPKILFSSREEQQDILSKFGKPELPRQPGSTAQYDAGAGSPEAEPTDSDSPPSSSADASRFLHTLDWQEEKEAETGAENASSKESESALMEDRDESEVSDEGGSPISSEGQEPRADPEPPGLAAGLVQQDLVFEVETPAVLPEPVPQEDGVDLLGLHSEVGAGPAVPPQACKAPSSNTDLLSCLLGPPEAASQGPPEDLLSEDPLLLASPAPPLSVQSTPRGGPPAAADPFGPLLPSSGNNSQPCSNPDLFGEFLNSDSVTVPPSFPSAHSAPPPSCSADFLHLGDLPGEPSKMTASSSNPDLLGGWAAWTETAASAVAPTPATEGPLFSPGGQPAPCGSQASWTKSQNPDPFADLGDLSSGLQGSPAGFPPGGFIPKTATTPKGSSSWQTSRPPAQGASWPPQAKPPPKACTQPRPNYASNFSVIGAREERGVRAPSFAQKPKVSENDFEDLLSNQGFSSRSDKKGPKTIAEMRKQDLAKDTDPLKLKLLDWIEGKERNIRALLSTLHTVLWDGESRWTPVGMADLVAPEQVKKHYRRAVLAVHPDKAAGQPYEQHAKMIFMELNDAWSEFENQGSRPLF

BIKE, sequence (Q9NSY1 whole entry): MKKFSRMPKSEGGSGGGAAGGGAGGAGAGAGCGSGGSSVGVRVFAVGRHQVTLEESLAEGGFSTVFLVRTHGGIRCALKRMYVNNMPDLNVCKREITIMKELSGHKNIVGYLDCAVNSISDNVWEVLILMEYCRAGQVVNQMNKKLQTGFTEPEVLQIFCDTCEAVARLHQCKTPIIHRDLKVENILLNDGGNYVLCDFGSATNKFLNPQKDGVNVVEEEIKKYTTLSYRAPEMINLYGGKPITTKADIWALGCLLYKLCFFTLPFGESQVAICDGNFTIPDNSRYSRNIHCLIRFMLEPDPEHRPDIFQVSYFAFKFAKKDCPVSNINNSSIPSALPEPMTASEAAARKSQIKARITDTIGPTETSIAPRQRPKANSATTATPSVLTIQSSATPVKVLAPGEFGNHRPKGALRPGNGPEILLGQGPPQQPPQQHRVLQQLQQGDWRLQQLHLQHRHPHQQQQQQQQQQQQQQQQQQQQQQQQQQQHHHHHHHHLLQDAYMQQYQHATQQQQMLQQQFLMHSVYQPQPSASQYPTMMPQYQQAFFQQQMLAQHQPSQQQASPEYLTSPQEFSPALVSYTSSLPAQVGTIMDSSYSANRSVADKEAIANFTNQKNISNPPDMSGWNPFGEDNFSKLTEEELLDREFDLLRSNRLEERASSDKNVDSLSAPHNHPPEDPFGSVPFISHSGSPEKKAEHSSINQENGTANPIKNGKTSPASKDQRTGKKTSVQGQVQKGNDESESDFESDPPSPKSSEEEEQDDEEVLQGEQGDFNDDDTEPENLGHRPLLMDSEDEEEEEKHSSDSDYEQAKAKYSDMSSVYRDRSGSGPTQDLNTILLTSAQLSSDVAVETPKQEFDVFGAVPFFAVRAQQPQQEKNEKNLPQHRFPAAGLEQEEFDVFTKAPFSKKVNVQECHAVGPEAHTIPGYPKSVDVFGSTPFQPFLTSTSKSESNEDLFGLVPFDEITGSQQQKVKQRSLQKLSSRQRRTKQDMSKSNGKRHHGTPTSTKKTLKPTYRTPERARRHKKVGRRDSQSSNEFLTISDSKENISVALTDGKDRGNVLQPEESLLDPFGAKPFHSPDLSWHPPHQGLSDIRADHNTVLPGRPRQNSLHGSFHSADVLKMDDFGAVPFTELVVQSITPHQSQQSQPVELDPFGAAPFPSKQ

## CNc1ncc2cc(-c3cc(Cl)ccc3Br)c(=O)n(CCCCN)c2n1 [compound 10, 8-(4-Aminobutyl)-6-(2-bromo-5-chlorophenyl)-2-(methylamino)pyrido[2,3-d]pyrimidin-7(8H)-one]
[1]; read-out: dTm 10
  ΔTm at 10 µM: 1.1 °C
[2]; read-out: dTm 10
  ΔTm at 10 µM: 0 °C
[3]; read-out: dTm 10
  ΔTm at 10 µM: 1.2 °C
[4]; read-out: dTm 10
  ΔTm at 10 µM: 0.3 °C
[5]; read-out: dTm 10
  ΔTm at 10 µM: 0.1 °C
[6]; read-out: dTm 10
  ΔTm at 10 µM: -0.6 °C
[7]; read-out: dTm 10
  ΔTm at 10 µM: 6.2 °C
[8]; read-out: dTm 10
  ΔTm at 10 µM: 3.3 °C

## CNc1ncc2cc(-c3cc(Cl)ccc3Cl)c(=O)n(CCCCN)c2n1 [compound 8, 8-(4-Aminobutyl)-6-(2,5-dichlorophenyl)-2-(methylamino)pyrido[2,3-d]pyrimidin-7(8H)-one]
[1]; read-out: dTm 8
  ΔTm at 10 µM: 1.1 °C
[2]; read-out: dTm 8
  ΔTm at 10 µM: 0.1 °C
[3]; read-out: dTm 8
  ΔTm at 10 µM: 1.3 °C
[4]; read-out: dTm 8
  ΔTm at 10 µM: 0.3 °C
[5]; read-out: dTm 8
  ΔTm at 10 µM: 0.1 °C
[6]; read-out: dTm 8
  ΔTm at 10 µM: -0.5 °C
[7]; read-out: dTm 8
  ΔTm at 10 µM: 6.2 °C
[8]; read-out: dTm 8
  ΔTm at 10 µM: 3.7 °C

## CNc1ncc2cc(-c3cc(C(F)(F)F)ccc3Cl)c(=O)n(CCCCN)c2n1 [compound 9, 8-(4-Aminobutyl)-6-(2-chloro-5-(trifluoromethyl)phenyl)-2-(methylamino)pyrido[2,3-d]pyrimidin-7(8H)-one]
[1]; read-out: dTm 9
  ΔTm at 10 µM: 0.6 °C
[2]; read-out: dTm 9
  ΔTm at 10 µM: 0 °C
[3]; read-out: dTm 9
  ΔTm at 10 µM: 0.7 °C
[4]; read-out: dTm 9
  ΔTm at 10 µM: 0.1 °C
[5]; read-out: dTm 9
  ΔTm at 10 µM: 0.1 °C
[6]; read-out: dTm 9
  ΔTm at 10 µM: -0.5 °C
[7]; read-out: dTm 9
  ΔTm at 10 µM: 2.5 °C
[8]; read-out: dTm 9
  ΔTm at 10 µM: 1 °C

## CNc1ncc2cc(-c3cc(Br)ccc3Br)c(=O)n(CCCCN)c2n1 [compound 11, 8-(4-Aminobutyl)-6-(2,5-dibromophenyl)-2-(methylamino)pyrido[2,3-d]pyrimidin-7(8H)-one]
[1]; read-out: dTm 11
  ΔTm at 10 µM: 1 °C
[2]; read-out: dTm 11
  ΔTm at 10 µM: 0 °C
[3]; read-out: dTm 11
  ΔTm at 10 µM: 1 °C
[4]; read-out: dTm 11
  ΔTm at 10 µM: 0.3 °C
[5]; read-out: dTm 11
  ΔTm at 10 µM: 0.2 °C
[6]; read-out: dTm 11
  ΔTm at 10 µM: -0.3 °C
[7]; read-out: dTm 11
  ΔTm at 10 µM: 4.8 °C
[8]; read-out: dTm 11
  ΔTm at 10 µM: 3.3 °C

## CNc1ncc2cc(-c3cc(F)c(-c4cccc(C)n4)cc3F)c(=O)n(CCCCN)c2n1 [compound 12, 8-(4-Aminobutyl)-6-(2,5-difluoro-4-(6-methylpyridin-2-yl)phenyl)-2-(methylamino)pyrido[2,3-d]pyrimidin-7(8H)-one]
[1]; read-out: dTm 12
  ΔTm at 10 µM: 2.2 °C
[2]; read-out: dTm 12
  ΔTm at 10 µM: -0.2 °C
[3]; read-out: dTm 12
  ΔTm at 10 µM: -2 °C
[4]; read-out: dTm 12
  ΔTm at 10 µM: -1.3 °C
[5]; read-out: dTm 12
  ΔTm at 10 µM: -0.9 °C
[6]; read-out: dTm 12
  ΔTm at 10 µM: 0.1 °C
[7]; read-out: dTm 12
  ΔTm at 10 µM: 3.5 °C
[8]; read-out: dTm 12
  ΔTm at 10 µM: 7.6 °C
